The record followed here is patent US9963464B2, “Macrocyclic compounds” (Bayer Pharma Aktiengesellschaft, priority 2014, dated 2018).

SMILES strings stand for the structures.

Series [1] addresses T1, human PTEFb (CDK9/Cyclin T1) (Homo sapiens, UniProt P50750).
T1 construct: purchased ProQinase, Freiburg, Germany
Briefly: Surface plasmon resonance PTEFb. The note with it: SPR; for koff: read-out: Dissociation rate constant koff; for Target resident time: 1/koff. The class given is binding. From the text:
8. Surface Plasmon Resonance PTEFb
The term “surface plasmon resonance”, as used herein, refers to an optical phenomenon that allows for the analysis of the reversible associations of biological molecules in real time within a biosensor matrix, for example using the Biacore® system (GE Healthcare Biosciences, Uppsala, Sweden). Biacore® uses the optical properties of surface plasmon resonance (SPR) to detect alterations in the refractive index of a buffer, which changes as molecules in solution interact with the target immobilized on the surface. In brief, proteins are covalently bound to the dextran matrix at a known concentration and a ligand for the protein is injected through the dextran matrix. Near infrared light, directed onto the opposite side of the sensor chip surface is reflected and also induces an evanescent wave in the gold film, which in turn, causes an intensity dip in the reflected light at a particular angle known as the resonance angle. If the refractive index of the sensor chip surface is altered (e.g. by compound binding to the bound protein) a shift occurs in the resonance angle. This angle shift can be measured.
The term “KD”, as used herein, is intended to refer to the equilibrium dissociation constant of a particular compound/target protein complex.
The term “koff”, as used herein, is intended to refer to the off-rate, i.e. the dissociation rate constant of a particular compound/target protein complex.
The term “target residence time”, as used herein, is intended to refer to the inverse of the rate of dissociation rate constant (1/koff) of a particular compound/target protein complex.
The ability of the compounds according to the invention to bind human PTEFb may be determined using surface plasmon resonance (SPR). KD values and koff values may be measured using a Biacore® T200 instrument (GE Healthcare, Uppsala, Sweden).
For SPR measurements, recombinant human PTEFb (CDK9/Cyclin T1 recombinant human active protein kinase purchased from ProQinase, Freiburg, Germany) is immobilized using standard amine coupling (Johnsson B et al, Anal Biochem. 1991 Nov. 1; 198(2):268-77). Briefly, carboxymethylated dextran biosensor chips (CM7, GE Healthcare) are activated with N-ethyl-N′-(3-dimethylaminopropyl)-carbodiimide hydrochloride (EDC) and N-hydroxysuccinimide (NHS) according to the supplier's instructions. Human PTEFb is diluted in 1×HBS-EP+(GE Healthcare) into 30 μg/ml and injected on the activated chip surface. Subsequently, a 1:1 solution of 1 M ethanolamine-HCl (GE Healthcare) and 1×HBS-EP is injected to block unreacted groups, resulting in approximately 4000 response units (RU) of immobilized protein. A reference surface is generated by treatment with NHS-EDC and ethanolamine-HCl. Compounds are dissolved in 100% dimethylsulfoxide (DMSO, Sigma-Aldrich, Germany) to a concentration of 10 mM and subsequently diluted in running buffer (1×HBS-EP+pH 7.4 [generated from HBS-EP+Buffer 10× (GE Healthcare): 0.1 M HEPES, 1.5 M NaCl, 30 mM EDTA and 0.5% v/v Surfactant P20], 1% v/v DMSO). For kinetic measurements, four-fold serial dilutions of compound (0.39 nM to 100 nM) are injected over immobilized protein. Binding kinetics is measured at 25° C. with a flow rate of 50 μl/min in running buffer. Compound concentrations are injected for 60 s followed by a dissociation time of 1800 s. The resulting sensorgrams are double-referenced against the reference surface as well as against blank injections.
The double-referenced sensorgrams are fit to a simple reversible Langmuir 1:1 reaction mechanism as implemented in the Biacore® T200 evaluation software 2.0 (GE Healthcare). In cases were full compound dissociation has not occurred at the end of the dissociation phase, the Rmax parameter (response at saturation) is fit as local variable. In all other cases, Rmax is fit as global variable.
On the technique in general: SPR reads the build-up and loss of mass on a sensor chip optically.

Series [2] can be described thus: Caco-2 permeation assay. The class given is in vitro ADME. The following applies: human, pH 7.2, Caco-2 monolayer, 2 μM test compound; for Papp A→B at 2 h, 2 μM: read-out: Papp A-B (Mari); for Papp B→A at 2 h, 2 μM: read-out: Papp B-A (Mari); for efflux ratio at 2 h, 2 μM: read-out: Efflux ratio (Papp B-A/Papp A-B). The protocol: 5. Caco-2 Permeation Assay:
Caco-2 cells (purchased from DSMZ Braunschweig, Germany) were seeded at a density of 4.5×10^4 cells per well on 24 well insert plates, 0.4 μm pore size, and grown for 15 days in DMEM medium supplemented with 10% fetal bovine serum, 1% GlutaMAX (100×, GIBCO), 100 U/mL penicillin, 100 μg/mL streptomycin (GIBCO) and 1% non essential amino acids (100×). Cells were maintained at 37° C. in a humidified 5% CO2 atmosphere. Medium was changed every 2-3 day. Before running the permeation assay, the culture medium was replaced by a FCS-free hepes-carbonate transport buffer (pH 7.2). For assessment of monolayer integrity the transepithelial electrical resistance (TEER) was measured. Test compounds were predissolved in DMSO and added either to the apical or basolateral compartment in final concentration of 2 μM in transport buffer. Before and after 2 h incubation at 37° C. samples were taken from both compartments. Analysis of compound content was done after precipitation with methanol by LC/MS/MS analysis. Permeability (Papp) was calculated in the apical to basolateral (A→B) and basolateral to apical (B→A) directions. The apparent permeability was calculated using following equation: Papp=(Vr/Po)(1/S)(P2/t) Where Vr is the volume of medium in the receiver chamber, Po is the measured peak area or height of the test drug in the donor chamber at t=o, S the surface area of the monolayer, P2 is the measured peak area of the test drug in the acceptor chamber after 2 h of incubation, and t is the incubation time. The efflux ratio basolateral (B) to apical (A) was calculated by dividing the Papp B-A by the Papp A-B. In addition the compound recovery was calculated.
For orientation: Caco-2 monolayers are a common model of the intestinal barrier.

Setting [3] is: 25° C., below 5E-5 s^-1 not resolvable.

T1 sequence (P50750 whole entry): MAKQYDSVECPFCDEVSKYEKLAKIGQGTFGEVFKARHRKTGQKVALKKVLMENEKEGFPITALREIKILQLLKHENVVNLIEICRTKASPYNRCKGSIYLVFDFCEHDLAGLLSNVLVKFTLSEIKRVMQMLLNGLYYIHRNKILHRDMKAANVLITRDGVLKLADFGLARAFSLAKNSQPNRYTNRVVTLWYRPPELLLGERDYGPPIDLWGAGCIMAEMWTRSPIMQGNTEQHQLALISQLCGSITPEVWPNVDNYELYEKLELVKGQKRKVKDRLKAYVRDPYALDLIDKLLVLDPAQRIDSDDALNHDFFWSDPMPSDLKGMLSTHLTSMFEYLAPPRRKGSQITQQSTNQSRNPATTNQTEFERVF
T1 sequence (O60563 whole entry partner): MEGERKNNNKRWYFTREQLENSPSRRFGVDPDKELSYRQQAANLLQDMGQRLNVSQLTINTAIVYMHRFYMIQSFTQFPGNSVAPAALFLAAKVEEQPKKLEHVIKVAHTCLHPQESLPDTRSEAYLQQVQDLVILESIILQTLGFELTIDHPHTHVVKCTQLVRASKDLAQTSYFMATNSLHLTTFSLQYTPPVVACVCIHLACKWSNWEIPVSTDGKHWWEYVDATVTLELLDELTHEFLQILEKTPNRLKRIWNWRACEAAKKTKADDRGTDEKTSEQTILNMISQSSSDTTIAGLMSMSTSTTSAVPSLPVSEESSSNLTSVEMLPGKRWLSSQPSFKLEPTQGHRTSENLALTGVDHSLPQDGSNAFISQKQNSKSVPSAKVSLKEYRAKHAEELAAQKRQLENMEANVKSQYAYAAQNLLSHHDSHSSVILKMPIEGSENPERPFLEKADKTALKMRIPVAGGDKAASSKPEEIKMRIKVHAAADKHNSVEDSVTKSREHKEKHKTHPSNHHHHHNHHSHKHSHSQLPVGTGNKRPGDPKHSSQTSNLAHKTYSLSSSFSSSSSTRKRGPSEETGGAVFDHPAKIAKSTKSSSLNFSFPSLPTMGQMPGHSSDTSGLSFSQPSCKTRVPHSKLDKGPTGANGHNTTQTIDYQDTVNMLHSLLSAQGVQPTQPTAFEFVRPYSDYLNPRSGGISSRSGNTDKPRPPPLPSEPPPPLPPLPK

Consider `C[S+]([O-])Cc1cc2nc(c1)OCCCOc1cc(F)ccc1-c1cc(ncc1F)N2` (racemic) [Example 4, (rac)-15,19-Difluoro-8-[(methylsulfinyl)methyl]-3,4-dihydro-2H,11H-10,6-(azeno)-12,16-(metheno)-1,5,11,13-benzodioxadiazacyclooctadecine], for which the koff (usually the rate constant with which the complex falls apart) in series [1] (setting [3]) was less than 5e-05 s⁻¹. Further, the Target resident time in series [1] is reported as greater than 333 min.

`C[S+]([O-])Cc1cc2nc(c1)OCCOc1cc(F)ccc1-c1cc(ncc1F)N2` (racemic) [Example 10, (rac)-14,18-difluoro-7-[(methylsulfinyl)methyl]-2,3-dihydro-10H-9,5-(azeno)-11,15-(metheno)-1,4,10,12-benzodioxadiazacycloheptadecine]: the koff in series [1] (setting [3]) was determined as 0.00245 s⁻¹. This compound gave a Target resident time in series [1] of 6.8 min.

In the case of `CS(=N)(=O)Cc1cc2nc(c1)OCCOc1cc(F)ccc1-c1cc(ncc1F)N2` (racemic) [Example 11, (rac)-14,18-difluoro-7-[(S-methylsulfonimidoyl)methyl]-2,3-dihydro-10H-9,5-(azeno)-11,15-(metheno)-1,4,10,12-benzodioxadiazacycloheptadecine], the koff in series [1] (setting [3]) turned out to be 0.0029 s⁻¹. In series [1], the Target resident time was 5.7 min.

As to `C[S+]([O-])Cc1cc2nc(c1)OCCCCOc1cc(F)ccc1-c1cc(ncc1F)N2` (racemic) [Example 13, (rac)-16,20-difluoro-9-[(methylsulfinyl)methyl]-2,3,4,5-tetrahydro-12H-11,7-(azeno)-13,17-(metheno)-1,6,12,14-benzodioxadiazacyclononadecine], the koff in series [1] (setting [3]) was less than 5e-05 s⁻¹. Moreover, the Target resident time in series [1] is given as greater than 333 min.

Consider `CS(=N)(=O)Cc1cc2nc(c1)OCCCCOc1cc(F)ccc1-c1cc(ncc1F)N2` (racemic) [Example 14, (rac)-16,20-difluoro-9-[(S-methylsulfonimidoyl)methyl]-2,3,4,5-tetrahydro-12H-11,7-(azeno)-13,17-(metheno)-1,6,12,14-benzodioxadiazacyclononadecine], for which the koff in series [1] (setting [3]) was less than 5e-05 s⁻¹. The compound also came in with a Target resident time in series [1] greater than 333 min.

For the compound `CS(=N)(=O)Cc1cc2cc(c1)OCCCOc1cc(F)ccc1-c1nc(ncc1F)N2` (racemic) [Example 15, (rac)-15,19-difluoro-8-[(S-methylsulfonimidoyl)methyl]-3,4-dihydro-2H,11H-12,16-(azeno)-10,6-(metheno)-1,5,11,13-benzodioxadiazacyclooctadecine], the koff in series [1] (setting [3]) is less than 5e-05 s⁻¹. Further, the Target resident time in series [1] is greater than 333 min.

Turning to `CS(=O)(Cc1cc2cc(c1)OCCCOc1cc(F)ccc1-c1nc(ncc1F)N2)=NC(=O)C(F)(F)F` (racemic) [Example 16, (rac)-N-[{[15,19-difluoro-3,4-dihydro-2H,11H-12,16-(azeno)-10,6-(metheno)-1,5,11,13-benzodioxadiazacyclooctadecin-8-yl]methyl}(methyl)oxido-λ^6-sulfanylidene]-2,2,2-trifluoroacetamide], the koff in series [1] (setting [3]) is less than 5e-05 s⁻¹. This compound came in with a Target resident time in series [1] greater than 333 min.

As for `CCNC(=O)N=S(C)(=O)Cc1cc2nc(c1)OCCCOc1cc(F)ccc1-c1cc(ncc1F)N2` (racemic) [Example 17, (rac)-1-[{[15,19-difluoro-3,4-dihydro-2H,11H-10,6-(azeno)-12,16-(metheno)-1,5,11,13-benzodioxadiazacyclooctadecin-8-yl]methyl}(methyl)oxido-λ^6-sulfanylidene]-3-ethylurea], in series [2], the Papp A→B (as a rule, how fast a substance crosses the layer from the apical side) at 2 h, 2 μM was determined as 8.7 ×10⁻⁶ cm/s; the Papp B→A (commonly how fast a substance crosses the layer from the basolateral side) at 2 h, 2 μM was found to be 8.8 ×10⁻⁶ cm/s; the efflux ratio at 2 h, 2 μM was 1.

In the case of `CS(=O)(=O)N=S(C)(=O)Cc1cc2nc(c1)OCCCOc1cc(F)ccc1-c1cc(ncc1F)N2` (racemic) [Example 22, (rac)-N-[{[15,19-difluoro-3,4-dihydro-2H,11H-10,6-(azeno)-12,16-(metheno)-1,5,11,13-benzodioxadiazacyclooctadecin-8-yl]methyl}(methyl)oxido-λ^6-sulfanylidene]methanesulfonamide], in series [2], the Papp A→B at 2 h, 2 μM was determined as 8.2 ×10⁻⁶ cm/s; the Papp B→A at 2 h, 2 μM was 12.6 ×10⁻⁶ cm/s; the efflux ratio at 2 h, 2 μM came out at 1.5.

On to `CS(=N)(=O)Cc1cc2nc(c1)OCCCOc1cc(F)ccc1-c1cc(ncc1F)N2` (single isomer, unassigned; enantiomer 1) [Example 6, 15,19-Difluoro-8-[(S-methylsulfonimidoyl)methyl]-3,4-dihydro-2H,11H-10,6-(azeno)-12,16-(metheno)-1,5,11,13-benzodioxadiazacyclooctadecine; Enantiomer 1], for which the koff in series [1] (setting [3]) was less than 5e-05 s⁻¹. The compound further gave a Target resident time in series [1] greater than 333 min.

The compound `CS(=N)(=O)Cc1cc2nc(c1)OCCCOc1cc(F)ccc1-c1cc(ncc1F)N2` (single isomer, unassigned; enantiomer 2) [Example 7, 15,19-Difluoro-8-[(S-methylsulfonimidoyl)methyl]-3,4-dihydro-2H,11H-10,6-(azeno)-12,16-(metheno)-1,5,11,13-benzodioxadiazacyclooctadecine; Enantiomer 2] showed a Dissociation rate constant koff in series [1] (setting [3]) of less than 5e-05 s⁻¹. Further, the Target resident time in series [1] was greater than 333 min.

As for `CSCc1cc2nc(c1)OCCCOc1cc(F)ccc1-c1cc(ncc1F)N2` [Example 3, 15,19-Difluoro-8-[(methylsulfanyl)methyl]-3,4-dihydro-2H,11H-10,6-(azeno)-12,16-(metheno)-1,5,11,13-benzodioxadiazacyclooctadecine], the koff in series [1] (setting [3]) is less than 5e-05 s⁻¹. This compound had a Target resident time in series [1] greater than 333 min.

For `CSCc1cc2nc(c1)OCCOc1cc(F)ccc1-c1cc(ncc1F)N2` [Example 9, 14,18-Difluoro-7-[(methylsulfanyl)methyl]-2,3-dihydro-10H-9,5-(azeno)-11,15-(metheno)-1,4,10,12-benzodioxadiazacycloheptadecine], the koff in series [1] (setting [3]) was determined as 0.00024 s⁻¹. The compound further returned a Target resident time in series [1] of 69.4 min.

`CSCc1cc2nc(c1)OCCCCOc1cc(F)ccc1-c1cc(ncc1F)N2` [Example 12, 16,20-Difluoro-9-[(methylsulfanyl)methyl]-2,3,4,5-tetrahydro-12H-11,7-(azeno)-13,17-(metheno)-1,6,12,14-benzodioxadiazacyclononadecine]: the koff in series [1] (setting [3]) is less than 5e-05 s⁻¹. This compound yielded a Target resident time in series [1] greater than 333 min.
